Test results published in PMC12133300, “The C-terminal structure of the N^6-methyladenosine deaminase YerA and its role in deamination” (Biochemical Journal, 2025).

How the values were obtained:
YerA (Bsu06560) [1] = target: T1, YerA (Bsu06560) (Bacillus subtilis, UniProt O34909); experiment: thermal shift assay (SYPRO Orange); assay type: binding; conditions: apo-YerA (without metal reconstitution) 15 uM, 3 mM ligand
T1 construct: full-length (Met1-Arg580), pET-28a(+), E. coli BL21(DE3), N-terminal His-tag cleaved by PreScission protease; monomer; assayed as apo or metal-reconstituted form
T1 sequence (O34909 whole entry): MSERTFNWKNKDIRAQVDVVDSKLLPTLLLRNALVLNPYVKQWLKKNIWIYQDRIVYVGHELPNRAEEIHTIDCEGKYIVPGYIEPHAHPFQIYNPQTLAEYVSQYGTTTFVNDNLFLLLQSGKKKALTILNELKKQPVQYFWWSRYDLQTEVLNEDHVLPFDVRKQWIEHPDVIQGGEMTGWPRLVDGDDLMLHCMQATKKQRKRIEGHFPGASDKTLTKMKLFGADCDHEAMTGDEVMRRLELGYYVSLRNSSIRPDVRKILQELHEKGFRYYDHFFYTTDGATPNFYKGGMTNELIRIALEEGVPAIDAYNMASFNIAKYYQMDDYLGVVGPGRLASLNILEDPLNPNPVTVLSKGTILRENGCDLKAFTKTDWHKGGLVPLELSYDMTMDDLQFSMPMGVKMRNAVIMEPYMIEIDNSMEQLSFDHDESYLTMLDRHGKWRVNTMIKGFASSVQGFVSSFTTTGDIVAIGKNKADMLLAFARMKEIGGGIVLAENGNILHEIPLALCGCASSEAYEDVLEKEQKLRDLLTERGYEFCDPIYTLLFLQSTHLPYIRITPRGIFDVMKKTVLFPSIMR

YerA (Bsu06560) [2] = target: T1, YerA (Bsu06560); experiment: LC-Q-TOF-MS detection of inosine product; assay type: biochemical; conditions: metal-reconstituted holoenzyme, 5 h, 37 °C, 5 mM ligand; apo form without reconstitution inactive

Tm shift (YerA (Bsu06560) [1]): 3 °C
Structure (SMILES): CNc1ncnc2c1ncn2[C@@H]1O[C@H](CO)[C@@H](O)[C@H]1O [N^6-mAdo, N^6-methyladenosine]
LC-Q-TOF-MS detection of inosine product (YerA (Bsu06560) [2]): YerA deaminated the favored substrate N^6-mAdo to Ino after a 5-h reaction
